Test results: patent US20160089365A1, “IMMUNOSTIMULATORY COMPOUND” (Eisai R&D Management Co., Ltd., priority 2014, published 2016)
“Also recorded” adds a separate entry of the source.

Columns and labels:
[1] = system: BNL 1MEA.7R.1 murine hepatocellular carcinoma xenografts; test: Antitumor effects in BNL 1MEA.7R.1 murine hepatocellular carcinoma xenografts in wild-type mice; assay type: in vivo, Mouse (BALB/cAnNCrlCrlj; details: Day 8
Method: The BNL 1MEA.7R. 1 murine hepatocellular carcinoma cells were cultured in Dulbecco's minimal essential medium (DMEM) supplemented with 10% heat-inactivated (56° C., 30 minutes) fetal bovine serum (FBS) and 100 U/mL penicillin, 100 μg/mL streptomycin, 1-glutamine (2 mmol/L) in humidified atmosphere of 5% CO2 at 37° C. This tumor cell line was developed from BALB/c mouse. The cells were washed with phosphate buffered saline (PBS), harvested with 0.25% trypsin-EDTA, and suspended with 50% BD Matrigel™ (BD biosciences) in the Hank's balanced salt solution (HBSS) at a density of 1×10^8 cells/mL. A 0.1 mL aliquot of the cell suspension was inoculated subcutaneously into the right flank of each mouse. Fifty days after the inoculation (Day 1), 15 out of 25 athymic mice and 25 out of 33 wild-type mice were selected based on their tumor volumes, shapes of tumors, physical condition, and body weights. Then the selected athymic and wild-type mice were randomly divided into 3 groups (Group 1-3 in the following table “Treatment Groups”) and 5 groups (Group 4-8), respectively. Animals assigned to Group 4, 6, 7, and 8 were used in Ex. 1 and 2. The mean tumor volumes of athymic and wild-type mice assigned to 8 groups were 169.5 and 157.5 mm^3, respectively, on Day 1.
(§1) Lenvatinib mesilate (3 and 10 mg/kg) or vehicle was orally administered at 0.1 mL/10 g body weight, once daily for 7 days (Day 1-7). The tumor volume and body weight of mice were measured on Day 1, 3, 6, and 8.
Tumor volume (mm^3)=length (mm)×width^2 (mm^2)×1/2
(§2) Data are expressed as mean±SD. The differences in relative tumor volume on Day 8 between vehicle- and lenvatinib mesilate-treated groups (3 and 10 mg/kg) in athymic and wild-type mice were analyzed by one-way analysis of variance followed by the Dunnett multiple comparison test, respectively. […]
To compare antitumor activities of lenvatinib mesilate between different strains, differences in % TGI of lenvatinib mesilate between athymic and wild-type mice at each dose were analyzed by the unpaired t test.

[2] = system: BNL 1MEA.7R.1 murine hepatocellular carcinoma xenografts; test: Antitumor effects in BNL 1MEA.7R.1 murine hepatocellular carcinoma xenografts in athymic mice; assay type: in vivo, Mouse (CAnN.Cg-Foxn1nu/CrlCrlj; details: oral 3 and 10 mg/kg once daily for 7 days, Day 8
Method: The BNL 1MEA.7R. 1 murine hepatocellular carcinoma cells were cultured in Dulbecco's minimal essential medium (DMEM) supplemented with 10% heat-inactivated (56° C., 30 minutes) fetal bovine serum (FBS) and 100 U/mL penicillin, 100 μg/mL streptomycin, 1-glutamine (2 mmol/L) in humidified atmosphere of 5% CO2 at 37° C. This tumor cell line was developed from BALB/c mouse. The cells were washed with phosphate buffered saline (PBS), harvested with 0.25% trypsin-EDTA, and suspended with 50% BD Matrigel™ (BD biosciences) in the Hank's balanced salt solution (HBSS) at a density of 1×10^8 cells/mL. A 0.1 mL aliquot of the cell suspension was inoculated subcutaneously into the right flank of each mouse. Fifty days after the inoculation (Day 1), 15 out of 25 athymic mice and 25 out of 33 wild-type mice were selected based on their tumor volumes, shapes of tumors, physical condition, and body weights. […]
Lenvatinib mesilate (3 and 10 mg/kg) or vehicle was orally administered at 0.1 mL/10 g body weight, once daily for 7 days (Day 1-7). The tumor volume and body weight of mice were measured on Day 1, 3, 6, and 8. […]
as §2

[3] = Body weight of mice during the xenograft study; assay type: in vivo, Mouse; details: athymic and wild-type mice, oral 3 and 10 mg/kg once daily for 7 days, during the study period
Method: as §1

[4] = system: tumor-associated macrophage (TAM) population in tumor; test: Immune population analysis in BNL 1MEA.7R.1 xenograft tumor of wild-type mice by flow cytometry; assay type: in vivo, Mouse (BALB/cAnNCrlCrlj; details: oral 10 mg/kg once a day for 7 days, Day 8
Method: Half-cut tumor samples collected from BNL 1MEA.7R.1 xenograft model in wild-type mice 1 day after the administration of vehicle or lenvatinib mesilate (10 mg/kg) in Referential Ex. 1 (Group 4, 6, 7, and 8) were minced with a razor on ice. The tumor fragments were digested with collagenase (1900 U/mL) and deoxyribonuclease I (160 KIU/mL) in HBSS for 1 hour at 37° C. with magnetic stirring in flasks. After filtering through cell strainer (pore size 70 μm), harvested cells were washed 3 times with flow cytometry buffer (PBS supplemented with 0.5% bovine serum albumin and 2 mmol/L EDTA). Cells were resuspended with 200 μL of FCM buffer containing 5 μg/mL Mouse BD Fc Block™ (BD biosciences), and incubated at 4° C. for 10 minutes. Antibody cocktail (dilution; 1:2 in FCM buffer) 1 and 2 were prepared as below.
One hundred microliters of cell suspension was mixed with 100 μL of the antibody cocktail 1 or 2 in each well of two 96-well cell culture round bottom plates (Corning Incorporated), and incubated at 4° C. for 30 minutes in a light protected. […] Data were analyzed by FCM analysis software FlowJo 7.6.5 (Tree Star, Inc.).
Data are expressed as mean±SD. The differences in percentage of target cells in CD45^+ cells between vehicle- and lenvatinib mesilate-treated groups were analyzed by the unpaired t test.

[5] = system: IFN-γ+ cells in CD8+ T cells of draining lymph nodes; test: IFN-γ staining analysis of CD8+ T cells derived from draining lymph nodes in BNL 1MEA.7R.1 xenografts in wild-type mice; assay type: in vivo, Mouse (BALB/cAnNCrlCrlj; details: oral 10 mg/kg once a day for 7 days, Day 8
Method: Draining lymph nodes derived from BNL 1MEA.7R. 1 xenograft model in wild-type mice 1 day after once-daily oral administration of vehicle or lenvatinib mesilate (10 mg/kg) for 7 days in Referential Ex. 1 were isolated and mashed by a 5-mL syringe. The cell number in suspension was calculated and adjusted to 2.0×10^6 cells/mL with RPMI1640 containing 10% FBS, 100 U/mL penicillin, and 100 μg/mL streptomycin. One hundred microliters per well of the resultant cell suspension were plated in a 96-well cell culture cluster round bottom plate (Corning Incorporated) and cultured with BD Goldi-Stop™ (final concentration [conc.] 4 μL/6 mL) for 5 hours in 5% CO2 at 37° C. […] After washing with 200 μL of BD Perm/Wash buffer 2 times, the resultant cells were resuspended with 200 μL of BD Perm/Wash buffer, and analyzed to detect percentage of IFN-γ-positive cells in CD3- and CD8-positive cells by FACSAriaII SORP cell sorter (Becton, Dickinson and company) with BD FACSDiva 6.1.3 software (Becton, Dickinson and company). […]
Data are expressed as mean±SD. The differences in percentage of IFN-γ-positive cells in CD8^+ T cells between vehicle- and lenvatinib mesilate-treated groups were analyzed by the unpaired t test

## COc1cc2nccc(Oc3ccc(NC(=O)NC4CC4)c(Cl)c3)c2cc1C(N)=O [lenvatinib mesilate, 4-(3-chloro-4-(cyclopropylaminocarbonyl)aminophenoxy)-7-methoxy-6-quinolinecarboxamide]
[1]; oral 3 and 10 mg/kg once daily for 7 days
  % TGI in wild-type mice compared to athymic mice at each dose: significantly larger
[1]; wild-type mice, both treatment groups (3 and 10 mg/kg)
  tumor shrinkage in individual animals: tumors from all animals shrank
[1]; wild-type mice, oral 3 and 10 mg/kg once daily for 7 days
  tumor volume compared to vehicle: significant reduction in tumor volume
[2]
  tumor volume compared to vehicle: no significant difference; also recorded: only tumor growth delay
[3]
  body weight loss: Any severe body weight loss was not observed
[4]
  percentage of TAM population (CD45+CD11b+Ly6G-F4/80+Ly6Clow) in total CD45+ cells compared to vehicle: significant reduction
  percentage of immature TAM (CD45+CD11b+Ly6G-F4/80-Ly6Chigh) in total CD45+ cells compared to vehicle: increased
[5]
  percentage of IFN-γ+ cells in CD8+ T cells in dLN compared to vehicle: significantly increased
